Source: patent US9617302B2 (priority 2011, dated 2017)
Values joined by “and” are separate entries in the source; they are usually repeats but may differ in a detail not shown here. Identical values can stand only once. “Also recorded” adds a separate entry of the source. No end group written: not given here.

Experiments:
washed platelets = format: cell-based, human; conditions: for IC50: read-out: IC50, inhibition of the collagen-induced aggregation
GPVI = GPVI (Homo sapiens, UniProt Q9HCN6); format: binding
[1] = test system: platelet-rich thrombus formation in irradiated mesenteric venules; assay: Fluorescein sodium-induced platelet thrombus formation in mesenteric venules; format: in vivo, mice
[2] = test system: [Ca2+]i elevation in platelets; assay: Intracellular Ca2+ level in Fura-2-loaded platelets stimulated with collagen; format: cell-based; conditions: Fura-2/AM; various concentrations
Method: The concentration of intracellular free Ca^2+ was determined using a fluorescent probe, Fura-2/AM, according to the method of Pollock and Rink (Pollock W K, Rink T J. Thrombin and ionomycin can raise platelet cytosolic Ca2+ to micromolar levels by discharge of internal Ca2+ stores: studies using fura-2. Biochemical and biophysical research communications 1986 Aug. 29; 139(1):308-14). Fura-2/AM—loaded platelets were prepared as the washed platelets except washing with Ca^2+-free Tyrode solution and allowed platelets to uptake Fura-2/AM (5 μM) for 30 min in the first wash. The intracellular Ca^2+ level of Fura-2-loaded platelets (3×10^8/ml) in the presence of 1 mM of Ca^2+ was measured by the fluorescence change (excitation at 339 nm, emission at 500 nm) with a Hitachi fluorescence spectrophotometer.

[3] = test system: platelet-rich plasma (PRP) prepared from mice; assay: Ex vivo platelet aggregation study (PRP of treated mice, collagen); format: in vivo; conditions: 10 mg/kg; collagen 3 μg/ml
Method: […] The platelet number of the whole blood sample was counted by a Sysmex cell counter (Chuo-Ku Kobe, Japan). PRP was prepared immediately by centrifugation at 200 g for 5 min. Platelet counts in PRP were adjusted to 3×10^8/ml and aggregation assay was performed in an aggregometer.

[4] = Platelet count of whole blood after administration; format: in vivo, mice; conditions: 30 mg/kg, 5 min after administration; control 11.41±0.19
Method: Male ICR mice (25-30 g) were intravenously (IV) injected with PBS or hexapeptide (30 mg/kg), and then blood was collected at 5 min after injection. The platelet number of the whole blood sample was counted by a Sysmex cell counter (Chuo-Ku Kobe, Japan). PRP was prepared immediately by centrifugation at 200 g for 5 min. Platelet counts in PRP were adjusted to 3×10^8/ml and aggregation assay was performed in an aggregometer.

Tail bleeding time = format: in vivo, mice; conditions: 5 min after injection
Method: Bleeding time was measured by a minor modified method described by Dejana et al (Dejana E, Villa S, de Gaetano G. Bleeding time in rats: a comparison of different experimental conditions. Thrombosis and haemostasis 1982 Aug. 24; 48(1):108-11). […] A sharp cut of 2 mm from tail tip of mouse was made 5 min after injection. The tail was immediately placed into a tube filled with saline, kept at 37° C. for measuring bleeding time.

Sequence of GPVI (Q9HCN6 21-339): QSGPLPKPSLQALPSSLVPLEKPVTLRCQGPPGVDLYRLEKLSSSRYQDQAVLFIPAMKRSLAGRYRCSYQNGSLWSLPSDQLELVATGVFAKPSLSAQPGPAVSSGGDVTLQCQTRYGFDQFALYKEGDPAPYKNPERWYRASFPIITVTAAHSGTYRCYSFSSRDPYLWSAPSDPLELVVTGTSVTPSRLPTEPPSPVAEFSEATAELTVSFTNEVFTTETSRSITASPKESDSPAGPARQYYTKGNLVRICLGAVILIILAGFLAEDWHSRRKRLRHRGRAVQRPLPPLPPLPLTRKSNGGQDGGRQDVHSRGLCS
Sequence of GPVI (P30273 19-86, further chain): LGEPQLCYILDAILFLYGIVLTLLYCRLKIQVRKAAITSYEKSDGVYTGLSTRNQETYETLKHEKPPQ

In the case of CKAMNV [Tro-α6 W116A], the “Inhibition of the collagen-induced aggregation (%)” value (shortened to “Inhibition … (%)”) (washed platelets) is reported as 12.28 ± 2.40% and the “Inhibitory activity on collagen-induced platelet aggregation (in words)” value (washed platelets) is reported as “decreased dramatically; also recorded: diminished”.

With GFCKWMNVAC [Tro-α10] the “IC50, inhibition of the collagen-induced aggregation” value (washed platelets) was 93.75 ± 6.25 (IC50: 35.17 ± 11.00, the “Inhibition … (%)” value (washed platelets) was 60% and 93.75 ± 6.25 (IC50: 35.17 ± 11.00% and the IC50 (washed platelets) was 30.4 µM. For the same compound, the “Binding of anti-GPVI mAb (326E12) to platelets” value (GPVI) was “specifically inhibited”, the “Occlusion time” value ([1]; 10 mg/kg, control (PBS) 153.0 ± 13.5 s) was 294.5 ± 25.4 s and the “Occlusion time” value ([1]; 10 mg/kg, control (PBS) 153.0 ± 13.5 s, listed as Decapeptide) was 294.5 ± 25.4 s. For the same compound, the “Collagen-evoked increase of [Ca2+]i” value [2] was “inhibited by decapeptide in a concentration-dependent manner” and the “% of inhibition, collagen-induced platelet aggregation ex vivo” value [3] was 55.87 ± 10.82 (n = 11) %.

In the case of CKWANV [Tro-α6 M117A], the “Inhibition … (%)” value (washed platelets) is reported as 52.91 ± 15.90%.

In the case of C(dK)WM(dN)V [d-form Tro-α6], the “IC50, inhibition of the collagen-induced aggregation” value (washed platelets) is reported as “(IC50: 6.82 ± 3.34 μg/ml”, the “Inhibition … (%)” value (washed platelets) is reported as 89.44 ± 6.49% and the IC50 (washed platelets) is reported as 8.75 µM.

With CKWMNV [Tro-α6, CKWMNV] the Platelet count [4] was 11.18±0.30 ×10^8/ml.

In the case of CWNKMV [Tro-α6 scramble], the “Inhibitory activity on collagen-induced platelet aggregation (in words)” value (washed platelets) is reported as “little effect”.

With CC(=O)Oc1ccccc1C(=O)O [aspirin, reference compound] the “Occlusion time” value ([1]; 250 mg/kg, control (PBS) 111.1 ± 5.1 s) was 298.7 ± 29.6 s, the “Occlusion time” value ([1]; 250 mg/kg, control (PBS) 111.1 ± 5.1 s, listed as Aspirin) was 298.7 ± 29.6 s and the Bleeding time (Tail bleeding time; 250 mg/kg IV) was 8.20 ± 0.91 min.

For RKWVNY [Agg-α6], the “Inhibition … (%)” value (washed platelets) was 21.67 ± 9.33%.

In the case of CCCCS(=O)(=O)N[C@@H](Cc1ccc(OCCCCC2CCNCC2)cc1)C(=O)O [tirofiban], the Bleeding time (Tail bleeding time; 0.4 mg/kg IV) is reported as 4.20 ± 1.20 min.
